What was measured:
[1] = system: cysteines in ZAK, EEF2, RTN4 and FN3KRP; experiment: in situ competitive isoTOP-ABPP in MDA-MB-231 cells; format: cell-based, human; settings: MDA-MB-231 cells treated with 50 or 100 μM HNE
Method: By combining the R values at all 5 HNE concentrations, we could extrapolate IC50 values for […] of IA probe-labeling for ˜700 of the 1100 cysteines (FIG. 3a).
After MDA-MB-231 cells were grown to 100% confluency, the media was removed and replaced with fresh serum-free media containing 100 μM HNE (20 μL of […] stock in 10 mL media). A control flask of cells was treated with 10 mL of serum-free media containing 20 uL of ethanol in parallel. The cells were incubated at 37° C. for 1 hour and harvested as detailed above to prepare HNE-treated and control proteomes, respectively. […]
IA-probe labeled peptides were identified by SEQUEST2 and DTASelect3, and the quantification of heavy/light ratios (isoTOP-ABPP ratios, R) was performed by an in-house software (CIMAGE) as previously described. The software was advanced to be able to detect and quantify cases where near complete […] blockade of IA-probe labeling was achieved (e.g., very small or no light peak) and assign an empirical ratio cut-off of 15 to each of such cases. […] In the case of probe-modified peptides that were sequenced in one, but not the other runs, a featured algorithm of CIMAGE was utilized to identify the corresponding peak pairs in the runs without the SEQUEST identification and obtain quantification as previously described. […]

JNK pathway activation = experiment: Western blotting of phospho-JNK in mock-transfected HEK-293T cells; format: cell-based, human; settings: 50 or 100 μM, 60 min
Method: We next set out to assess the functional effects of HNE modification of ZAK in human cells. HEK-293T cells were stably transfected with cDNAs for WT-ZAK, C22A-ZAK, or K45M-ZAK and the activation state of their MAPK signaling pathways was monitored by western blotting with anti-phosphoprotein antibodies. […] We next treated cells with H2O2 (1 mM, 30 min) to induce oxidative stress, a process that is known to activate the JNK pathway^41,42. H2O2 treatment stimulated JNK activity in both WT- and C22A-ZAK-transfected cells (but not K45M-ZAK-transfected cells), with WT-ZAK cells showing the greater level of activation (FIG. 5b,c). […] We interpret these findings to indicate the existence of both ZAK-dependent and ZAK-independent pathways for HNE modulation of JNK activation (FIG. 5d). By modifying C22 on ZAK, HNE blocks the contribution that this kinase makes to the activation of the JNK pathway. […]
Mouse and rabbit monoclonal antibodies against phospho-ERK 1/2 (Thr202/Tyr204), phosphor-SAPK/JNK (Thr183/[…]), phosphor-p38 MAPK (Thr180/[…]) and total ERK 1/2, SAPK/JNK and p38 MAPK were purchased from Cell Signaling Technology. […] Protein band intensities were quantified by ImageJ8 and ratios of phosphor-MAPK over total MAPK were computed. […]

CCCCCC(O)/C=C/C=O (centres unmarked) [4-HNE, 4-Hydroxynonenal]
inhibition of the most HNE-sensitive cysteines in situ [1]: strongly inhibited | JNK activation by HNE alone, mock-transfected cells (JNK pathway activation): activated JNK

Reference: patent US10782295B2, “Cysteine-reactive ligand discovery in proteomes” (THE SCRIPPS RESEARCH INSTITUTE, priority 2013, dated 2020)
